According to US8927715B2, “Inhibitors of 11β-hydroxysteroid dehydrogenase type 1” (Vitae Pharmaceuticals, Inc., priority 2006, dated 2015):

molecular target: T1, human 11β-HSD1 (Homo sapiens, UniProt P28845); test: Scintillation Proximity Assay: inhibition of purified 11β-HSD1 (Biological Test Example 1); type: biochemical; parameters: made in house; host or cells: E. coli; settings: purified recombinant 11β-HSD1, SPA; read-out: Biological Test Example 1 (IC50 class)
Method: The inhibition of purified 11β-HSD1 by compounds of Formula I or I* is measured using a Scintillation Proximity Assay. All reactions are carried out at room temperature in 96 well flexible Microbeta reaction plates. First, 1 μL of a 0.1 mM solution of a compound of Formula I or I* is mixed in DMSO diluted in half-log increments (8 points) starting at 1 μM final concentration. To this dot is added 50 μL of substrate solution (50 mM HEPES, pH 7.4, 100 mM KCl, 5 mM NaCl, 2 mM MgCl2 containing 20 μM ^3H cortisone, 1 mM NADPH). […] The reaction is then incubated for 90 minutes, and stopped by adding 50 μl of SPA bead mix (18-β-glycyrrhetinic acid, 10 μM final, 5 mg/ml protein A coated YSi SPA beads, and 1 μg/ml α-cortisol antibody (East Coast Biologics)). The plate is shaken for 120 minutes, and the radioactivity corresponding to ^3H cortisol is measured on a Wallac Microbeta.
Target sequence in this assay (P28845 whole entry, species assumed): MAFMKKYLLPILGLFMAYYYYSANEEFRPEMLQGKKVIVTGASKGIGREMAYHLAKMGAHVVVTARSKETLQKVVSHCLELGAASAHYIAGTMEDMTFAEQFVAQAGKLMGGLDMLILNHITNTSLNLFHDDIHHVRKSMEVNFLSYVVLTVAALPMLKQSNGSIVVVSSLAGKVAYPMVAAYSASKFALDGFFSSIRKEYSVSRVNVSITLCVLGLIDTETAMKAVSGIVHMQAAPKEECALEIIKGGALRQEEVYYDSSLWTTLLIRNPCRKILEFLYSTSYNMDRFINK

Compound | IC50
COC(=O)CC1CC2(CCN(C(=O)OC3C4CC5CC(C4)CC3C5)CC2)c2ccccc21 (racemic) [Example 24, (±)-2-Adamantyl 3-(2-methoxy-2-oxoethyl)-2,3-dihydrospiro[indene-1,4′-piperidine]-1′-carboxylate] | < 50 nM
O=C(O)C1=CC2(CCN(C(=O)NC3C4CC5CC(C4)CC3C5)CC2)c2ccccc21 (centres unmarked) [Example 11, 1′-((2-Adamantyl)carbamoyl)spiro[indene-1,4′-piperidine]-3-carboxylic acid] | < 50 nM
O=C(NC1C2CC3CC(C2)CC1C3)N1CCC2(CC1)CNCc1ccccc12 (centres unmarked) [Example 30, N-(2-Adamantyl)-2,3-dihydro-1H-spiro[isoquinoline-4,4′-piperidine]-1′-carboxamide] | < 50 nM
CC(C)(C)OC(=O)N1CC2(CCN(C(=O)NC3C4CC5CC(C4)CC3C5)CC2)c2ccccc21 (centres unmarked) [Example 1, Tert-butyl 1′-((2-adamantyl)carbamoyl)spiro[indoline-3,4′-piperidine]-1-carboxylate] | < 50 nM
CCOC(=O)C1=CC2(CCN(C(=O)NC3C4CC5CC(C4)CC3C5)CC2)c2ccccc21 (centres unmarked) [Example 15, Ethyl 1′-((2-adamantyl)carbamoyl)spiro[indene-1,4′-piperidine]-3-carboxylate] | < 50 nM
O=C(OC1C2CC3CC(C2)CC1C3)N1CCC2(CC1)CNc1ccc(F)cc12 (centres unmarked) [Example 21, 2-Adamantyl 5-fluorospiro[indoline-3,4′-piperidine]-1′-carboxylate] | < 50 nM
CC(=O)N1Cc2ccccc2C2(CCN(C(=O)NC3C4CC5CC(C4)CC3C5)CC2)C1 (centres unmarked) [Example 31, 2-Acetyl-N-(2-adamantyl)-2,3-dihydro-1H-spiro[isoquinoline-4,4′-piperidine]-1′-carboxamide] | < 50 nM
CC(C)(C)OC(=O)N1Cc2ccccc2C2(CCN(C(=O)NC3C4CC5CC(C4)CC3C5)CC2)C1 (centres unmarked) [Example 29, Tert-butyl 1′-((2-adamantyl)carbamoyl)-1H-spiro[isoquinoline-4,4′-piperidine]-2(3H)-carboxylate] | < 50 nM
CC(=O)N1CC2(CCN(C(=O)OC3C4CC5CC(C4)CC3C5)CC2)c2ccccc21 (centres unmarked) [Example 23, 2-Adamantyl 1-acetylspiro[indoline-3,4′-piperidine]-1′-carboxylate] | < 50 nM
O=C(OC1C2CC3CC(C2)CC1C3)N1CCC2(CC1)CNc1ccccc12 (centres unmarked) [Example 20, 2-Adamantyl spiro[indoline-3,4′-piperidine]-1′-carboxylate] | < 50 nM
Cc1ccc2c(c1)C1(CCN(C(=O)OC3C4CC5CC(C4)CC3C5)CC1)CN2 (centres unmarked) [Example 22, 2-Adamantyl 5-methylspiro[indoline-3,4′-piperidine]-1′-carboxylate] | < 50 nM
O=C(OC1C2CC3CC(C2)CC1C3)N1CCC2(CC1)OCc1ccccc12 (centres unmarked) [Example 84, 2-Adamantyl 3H-spiro[isobenzofuran-1,4′-piperidine]-1′-carboxylate] | < 50 nM
CCOC(=O)CC1CC2(CCN(C(=O)NC3C4CC5CC(C4)CC3C5)CC2)Oc2ccccc21 (racemic) [Example 18, (±)-Ethyl 2-1′-((2-adamantyl)carbamoyl)spiro[chroman-2,4′-piperidine]-4-yl)acetate] | 50 to 1000 nM
Cc1ccc2c(c1)C1(CCN(C(=O)OC3C4CC5CC(C4)CC3C5)CC1)CN2C(=O)OC(C)(C)C (centres unmarked) [Example 130, 1-Tert-butyl 1′-(2-adamantyl) 5-methylspiro[indoline-3,4′-piperidine]-1,1′-dicarboxylate] | 50 to 1000 nM
O=C(O)C1CC2(CCN(C(=O)NC3C4CC5CC(C4)CC3C5)CC2)c2ccccc21 (racemic) [Example 12, (±)-1′-((2-Adamantyl)carbamoyl)-2,3-dihydrospiro[indene-1,4′-piperidine]-3-carboxylic acid] | < 50 nM
(±)-2-(1′-(Cyclohexylcarbamoyl)spiro[chroman-2,4′-piperidine]-4-yl)acetic acid [Example 14] | 50 to 1000 nM
CC(C)(C)OC(=O)N1CC2(CCN(C(=O)OC3C4CC5CC(C4)CC3C5)CC2)c2ccccc21 (centres unmarked) [Example 128, 1-Tert-butyl 1′-(2-adamantyl)spiro[indoline-3,4′-piperidine]-1,1′-dicarboxylate] | 50 to 1000 nM
CNC(=O)CC1CC2(CCN(C(=O)OC3C4CC5CC(C4)CC3C5)CC2)c2ccccc21 (racemic) [Example 26, (±)-2-Adamantyl 3-(2-(methylamino)-2-oxoethyl)-2,3-dihydrospiro[indene-1,4′-piperidine]-1′-carboxylate] | < 50 nM
O=C(NC1C2CC3CC(C2)CC1C3)N1CCC2(CC1)CNc1ccccc12 (centres unmarked) [Example 2, N-(2-Adamantyl)spiro[indoline-3,4′-piperidine]-1′-carboxamide] | < 50 nM
O=C(O)CC1CC2(CCN(C(=O)OC3C4CC5CC(C4)CC3C5)CC2)c2ccccc21 (centres unmarked) [Example 25, 2-(1′-((2-Adamantyloxy)carbonyl)-2,3-dihydrospiro[indene-1,4′-piperidine]-3-yl)acetic acid] | < 50 nM
O=C(O)CCCC(=O)N1Cc2ccccc2C2(CCN(C(=O)NC3C4CC5CC(C4)CC3C5)CC2)C1 (centres unmarked) [Example 95, 5-(1′(2-Adamantylcarbamoyl)-1H-spiro[isoquinoline-4,4′-piperidine]-2(3H)-yl)-5-oxopentanoic acid] | 50 to 1000 nM
CC(C)(C)OC(=O)N1CCC2(CCCN(C(=O)NC3C4CC5CC(C4)CC3C5)C2)C1 (racemic) [Example 10, (±)-tert-Butyl 7((2-adamantyl)carbamoyl)-2,7-diazaspiro[4.5]decane-2-carboxylate] | 50 to 1000 nM
CC(C)(C)OC(=O)N1CCC2(CCN(C(=O)NC3C4CC5CC(C4)CC3C5)CC2)C1 (centres unmarked) [Example 9, tert-Butyl 8-((2-adamantyl)carbamoyl)-2,8-diazaspiro[4.5]decane-2-carboxylate] | 50 to 1000 nM
CC(C)(C)OC(=O)N1CCC2(CCN(C(=O)NC3C4CC5CC(C4)CC3C5)CC2)CC1 (centres unmarked) [Example 8] | 50 to 1000 nM
(±)-Ethyl 1′-(cyclohexylcarbamoyl)spiro[chroman-2,4′-piperidine]-4-carboxylate [Example 17] | 50 to 1000 nM
(±)-Ethyl 1′-(cyclohexylcarbamoyl)-2,3-dihydrospiro[indene-1,4′-piperidine]-3-carboxylate [Example 16] | < 50 nM
CC(=O)N1CC2(CCN(C(=O)NC3C4CC5CC(C4)CC3C5)CC2)c2ccccc21 (centres unmarked) [Example 7, 1-Acetyl-N-(2-adamantyl)spiro[indoline-3,4′-piperidine]-1′-carboxamide] | < 50 nM
O=C(O)C1CC2(CCN(C(=O)NC3C4CC5CC(C4)CC3C5)CC2)Oc2ccccc21 (racemic) [Example 13, (±)-1′-((2-Adamantyl)carbamoyl)spiro[chroman-2,4′-piperidine]-4-carboxylic acid] | 50 to 1000 nM
CS(=O)(=O)N1CC2(CCN(C(=O)NC3C4CC5CC(C4)CC3C5)CC2)c2ccccc21 (centres unmarked) [Example 19, N-(2-Adamantyl)-1-(methylsulfonyl)spiro[indoline-3,4′-piperidine]-1′-carboxamide] | < 50 nM
CC(C)(C)OC(=O)N1CC2(CCN(C(=O)OC3C4CC5CC(C4)CC3C5)CC2)c2cc(F)ccc21 (centres unmarked) [Example 129, 1-Tert-butyl 1′-(2-adamantyl) 5-fluorospiro[indoline-3,4′-piperidine]-1,1′-dicarboxylate] | 50 to 1000 nM

molecular target: T1, human 11β-HSD1; test: Inhibition of a microsomal preparation of 11β-HSD1, SPA (Biological Test Example 2); type: biochemical; parameters: expressed in transfected cells; host or cells: CHO cells (microsomes); settings: read-out: Biological Test Example 2 (IC50 class)
How it was run: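 Microsomes from CHO cells overexpressing human 11β-HSD1 (10-20 μg/ml total protein) added after 10 min compound pre-incubation, then 90 min at room temperature. Stopped with 18β-glycyrrhetinic acid (10 nM), protein A SPA beads and anti-cortisol antibody; [3H]cortisol measured by SPA after 120 min.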
Target sequence in this assay (P28845 whole entry): as the sequence (P28845 whole entry, species assumed) above

Compound | IC50
O=C(NC1C2CC3CC(C2)CC1C3)N1CCC2(CC1)CNCc1ccccc12 (centres unmarked) [Example 30, N-(2-Adamantyl)-2,3-dihydro-1H-spiro[isoquinoline-4,4′-piperidine]-1′-carboxamide] | < 50 nM
CC(=O)N1Cc2ccccc2C2(CCN(C(=O)NC3C4CC5CC(C4)CC3C5)CC2)C1 (centres unmarked) [Example 31, 2-Acetyl-N-(2-adamantyl)-2,3-dihydro-1H-spiro[isoquinoline-4,4′-piperidine]-1′-carboxamide] | < 50 nM
CC(=O)N1CC2(CCN(C(=O)OC3C4CC5CC(C4)CC3C5)CC2)c2ccccc21 (centres unmarked) [Example 23, 2-Adamantyl 1-acetylspiro[indoline-3,4′-piperidine]-1′-carboxylate] | < 50 nM
O=C(OC1C2CC3CC(C2)CC1C3)N1CCC2(CC1)OCc1ccccc12 (centres unmarked) [Example 84, 2-Adamantyl 3H-spiro[isobenzofuran-1,4′-piperidine]-1′-carboxylate] | < 50 nM
O=C(O)CCCC(=O)N1Cc2ccccc2C2(CCN(C(=O)NC3C4CC5CC(C4)CC3C5)CC2)C1 (centres unmarked) [Example 95, 5-(1′(2-Adamantylcarbamoyl)-1H-spiro[isoquinoline-4,4′-piperidine]-2(3H)-yl)-5-oxopentanoic acid] | < 50 nM
